*1 amine or outer side, *2 acyl side, *3 side chain or, on linkers, in order; H or OH if unused. Where a SMILES comes first, the peptide text is derived from it. Bridges are numbered along the chain shown (N, C = ends). [ ]: non-standard residue; d: D form. The star is where a group is joined. ξ: configuration not given here. Phe(3-CF3) = N[C@@H](Cc1cccc(C(F)(F)F)c1)C(=O)O; Ala(morpholin-4-yl) = N[C@@H](CN1CCOCC1)C(=O)O; Phe(4-COOH) = N[C@@H](Cc1ccc(C(=O)O)cc1)C(=O)O; Bip = N[C@@H](Cc1ccc(-c2ccccc2)cc1)C(=O)O; NH(CH2)14COOH = O=C(O)CCCCCCCCCCCCCCN*; Phe(3-Me) = Cc1cccc(C[C@H](N)C(=O)O)c1; γGlu = O=C(O)[C@H](CCC(=O)[*:2])N[*:1]; NH(CH2)12COOH = O=C(O)CCCCCCCCCCCCN*; Cyclopropanecarbonyl = O=C(C1CC1)*; Val(3-OH) = CC(C)(O)[C@H](N)C(=O)O; 4Pal = N[C@@H](Cc1ccncc1)C(=O)O; Cha = N[C@@H](CC1CCCCC1)C(=O)O; Cit = NC(=O)NCCC[C@H](N)C(=O)O; Ile(3ξ) = CCC(C)[C@H](N)C(=O)O; NMeN = CN[C@@H](CC(N)=O)C(=O)O; Thr(3ξ) = CC(O)[C@H](N)C(=O)O; Carboxymethyl = O=C(O)C*; NMeA = CN[C@@H](C)C(=O)O; Orn = NCCC[C@H](N)C(=O)O; Aun = NCCCCCCCCCCC(=O)O; Dab = NCC[C@H](N)C(=O)O; AEEA = NCCOCCOCC(=O)O; Piv = CC(C)(C)C(=O)*; Sar = CNCC(=O)O

Our source for the IC50 values is patent US20260070945A1, “MACROCYCLIC IMMUNOMODULATORS” (Bristol-Myers Squibb Company, priority 2022, published 2026).

The target of one test is T1, PD-1/PD-L1 interaction (PE-labeled human PD-L1-Ig binding to Jurkat cell line over-expressing human PD-1) (Homo sapiens, UniProt Q15116).
T1 construct: expressed in transfected cells; host or cells: Jurkat
T1 sequence (Q15116 25-288): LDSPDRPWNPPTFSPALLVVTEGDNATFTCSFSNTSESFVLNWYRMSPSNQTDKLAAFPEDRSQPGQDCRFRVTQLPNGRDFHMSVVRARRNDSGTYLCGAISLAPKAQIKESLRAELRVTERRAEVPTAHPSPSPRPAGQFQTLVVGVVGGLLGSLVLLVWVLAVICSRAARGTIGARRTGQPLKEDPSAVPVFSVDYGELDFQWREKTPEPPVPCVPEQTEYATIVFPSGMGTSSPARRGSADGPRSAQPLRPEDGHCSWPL
The test can be described thus: Jurkat-PD-1 Cell Binding High-Content Screening Assay (CBA). The conditions noted are these: Jurkat-hPD-1 cells, PE-labeled PD-L1-Ig 20 nM final; read-out: Jurkat HPD1 PDL1 IC50. Summed up: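 Read-out: high-content imaging of cell-bound PE fluorescence, with Hoechst 33342 nuclear counterstain after paraformaldehyde fixation. Before labeled ligand (20 nM final, 1 h) was added, compound sat on the cells for 2 h at 37 °C in DMEM/10% FCS.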
Usually IC50 stands for the concentration that gives 50% inhibition. For `Cc1cccc(C[C@@H]2NC(=O)[C@H](CC(=O)O)NC(=O)[C@H](Cc3ccc(OCC(=O)O)cc3)NC(=O)[C@H](CCCNC(=O)C3CC3)NC(=O)CSC[C@@H](C(=O)N[C@@H](CCN)C(=O)NCCCCCCCCCCC(=O)O)NC(=O)[C@H](C(C)O)NC(=O)[C@H](C(C)C)NC(=O)[C@H](CC3CCCCC3)NC(=O)[C@H](CCN)NC(=O)[C@@H](CC(C)C)NC(=O)[C@H](C)N(C)C(=O)[C@H](CCCNC(N)=O)NC(=O)[C@H](Cc3ccc(-c4ccccc4)cc3)NC(=O)[C@H](Cc3ccc(O)cc3)NC2=O)c1` (stereo partly drawn) [Example 2400] ({CH2CO}-[Orn](Cyclopropanecarbonyl)Y(Carboxymethyl)D[Phe(3-Me)]Y[Bip][Cit][NMeA][dL][Dab][Cha]V[Thr(3ξ)]C[Dab][Aun]-OH; thioether N-14), the half-maximal inhibitory concentration (IC50) is 0.011 µM.
On to `CC(C)C[C@H]1NC(=O)[C@H](C)N(C)C(=O)[C@H](CCCNC(N)=O)NC(=O)[C@H](Cc2ccc(-c3ccccc3)cc2)NC(=O)[C@H](Cc2ccc(C(=O)O)cc2)NC(=O)[C@H](Cc2cccc(C(F)(F)F)c2)NC(=O)[C@H](CC(=O)O)NC(=O)[C@H](Cc2ccc(OCC(=O)O)cc2)NC(=O)[C@H](CN2CCOCC2)NC(=O)CSC[C@@H](C(=O)N[C@@H](CCN)C(=O)NCCCCCCCCCCCCC(=O)O)NC(=O)[C@H](CC(=O)O)NC(=O)[C@H](C(C)(C)O)NC(=O)[C@H](CC2CCCCC2)NC(=O)[C@H](CCN)NC1=O` [Example 1154] ({CH2CO}-[Ala(morpholin-4-yl)]Y(Carboxymethyl)D[Phe(3-CF3)][Phe(4-COOH)][Bip][Cit][NMeA][dL][Dab][Cha][Val(3-OH)]DC[Dab]-{NH(CH2)12COOH}; thioether N-14), for which the IC50 stood at 0.0156 µM.
The same measure, in the same setting: with `Cc1cccc(C[C@@H]2NC(=O)[C@H](CC(=O)O)NC(=O)[C@H](Cc3ccc(OCC(=O)O)cc3)NC(=O)[C@H](C(C)O)NC(=O)CSC[C@@H](C(=O)N(C)CC(=O)NCCCCCCCCCCC(=O)O)NC(=O)[C@H](CCC(N)=O)NC(=O)[C@H](C(C)C)NC(=O)[C@H](CC3CCCCC3)NC(=O)[C@H](CCN)NC(=O)[C@@H](CC(C)C)NC(=O)[C@H](C)N(C)C(=O)[C@H](C(C)C)NC(=O)[C@H](Cc3ccc(-c4ccccc4)cc3)NC(=O)[C@H](Cc3ccc(O)cc3)NC2=O)c1` (stereo partly drawn) [Example 2265] ({CH2CO}-[Thr(3ξ)]Y(Carboxymethyl)D[Phe(3-Me)]Y[Bip]V[NMeA][dL][Dab][Cha]VQC[Sar][Aun]-OH; thioether N-14) the figure was 0.427 µM; with `Cc1cccc(C[C@@H]2NC(=O)[C@H](CC(=O)O)NC(=O)[C@H](Cc3ccc(OCC(=O)O)cc3)NC(=O)[C@H](CCNC(=O)C(C)(C)C)NC(=O)CSC[C@@H](C(=O)N[C@@H](CCN)C(=O)NCCCCCCCCCCC(=O)O)NC(=O)[C@H](CCC(N)=O)NC(=O)[C@H](C(C)C)NC(=O)[C@H](CC3CCCCC3)NC(=O)[C@H](CCN)NC(=O)[C@@H](CC(C)C)NC(=O)[C@H](C)N(C)C(=O)[C@H](Cc3ccc(OCC(=O)O)cc3)NC(=O)[C@H](Cc3ccc(-c4ccccc4)cc3)NC(=O)[C@H](Cc3ccc(C(=O)O)cc3)NC2=O)c1` [Example 1270] ({CH2CO}-[Dab](Piv)Y(Carboxymethyl)D[Phe(3-Me)][Phe(4-COOH)][Bip]Y(Carboxymethyl)[NMeA][dL][Dab][Cha]VQC[Dab][Aun]-OH; thioether N-14), 0.0619 µM.
On to `CC(C)C[C@H]1NC(=O)[C@H](C)N(C)C(=O)[C@H](CCC(N)=O)NC(=O)[C@H](Cc2ccc(-c3ccccc3)cc2)NC(=O)[C@H](Cc2ccc(C(=O)O)cc2)NC(=O)[C@H](Cc2cccc(C(F)(F)F)c2)NC(=O)[C@H](CC(=O)O)NC(=O)[C@H](Cc2ccc(OCC(=O)O)cc2)NC(=O)[C@H](Cc2ccc(C(=O)O)cc2)NC(=O)CSC[C@@H](C(=O)N[C@@H](CCN)C(=O)NCCOCCOCC(=O)N[C@@H](CCC(=O)NCCOCCOCC(=O)NCCCCCCCCCCCCC(=O)O)C(=O)O)NC(=O)[C@H](CCC(=O)O)NC(=O)[C@H](C(C)C)NC(=O)[C@H](CC2CCCCC2)NC(=O)[C@H](CCN)NC1=O` [Example 1183] ({CH2CO}-[Phe(4-COOH)]Y(Carboxymethyl)D[Phe(3-CF3)][Phe(4-COOH)][Bip]Q[NMeA][dL][Dab][Cha]VEC[Dab][AEEA][γGlu][AEEA]-{NH(CH2)12COOH}; thioether N-14), for which the IC50 stood at 0.0941 µM.
Same read-out and setting: then `CC(C)C[C@@H]1NC(=O)[C@H](Cc2c[nH]c3ccccc23)NC(=O)[C@H](CC(=O)O)NC(=O)[C@H](Cc2ccc(C(=O)O)cc2)NC(=O)[C@H](Cc2ccc(OCC(=O)O)cc2)NC(=O)CSC[C@@H](C(=O)N[C@@H](CCN)C(=O)NCCOCCOCC(=O)NCCCCCCCCCCC(=O)O)NC(=O)[C@H](CCCNC(N)=O)NC(=O)[C@H](C(C)(C)O)NC(=O)[C@H](CC2CCCCC2)NC(=O)[C@H](CCN)NC(=O)[C@@H](CC(C)C)NC(=O)[C@H](C)N(C)C(=O)[C@H](C(C)C)NC(=O)[C@H](Cc2ccc(-c3ccccc3)cc2)NC1=O` [Example 1122] ({CH2CO}-Y(Carboxymethyl)[Phe(4-COOH)]DWL[Bip]V[NMeA][dL][Dab][Cha][Val(3-OH)][Cit]C[Dab][AEEA][Aun]-OH; thioether N-14), with 0.0038 µM; and `CC(C)C[C@H]1NC(=O)[C@H](CC(N)=O)N(C)C(=O)[C@H](C(C)C)NC(=O)[C@H](Cc2ccc(-c3ccccc3)cc2)NC(=O)[C@H](C(C)C)NC(=O)[C@H](Cc2c[nH]c3ccccc23)NC(=O)[C@H](CC(=O)O)NC(=O)[C@H](Cc2ccc(OCC(=O)O)cc2)NC(=O)[C@H](C(C)O)NC(=O)CSC[C@@H](C(=O)N[C@@H](CCN)C(=O)NCCCCCCCCCCC(=O)O)NC(=O)[C@H](C(C)O)NC(=O)[C@H](C(C)C)NC(=O)[C@H](CC2CCCCC2)NC(=O)[C@H](CCN)NC1=O` (stereo partly drawn) [Example 2243] ({CH2CO}-[Thr(3ξ)]Y(Carboxymethyl)DWV[Bip]V[NMeN][dL][Dab][Cha]V[Thr(3ξ)]C[Dab][Aun]-OH; thioether N-14), with 0.026 µM.
As to `Cc1cccc(C[C@@H]2NC(=O)[C@H](CC(=O)O)NC(=O)[C@H](Cc3ccc(OCC(=O)O)cc3)NC(=O)[C@H]([C@@H](C)O)NC(=O)CSC[C@@H](C(=O)N[C@@H](CCCN)C(=O)NCCOCCOCC(=O)NCCCCCCCCCCC(=O)O)NC(=O)[C@H](CO)NC(=O)[C@H](C(C)C)NC(=O)[C@H](CC3CCCCC3)NC(=O)[C@H](CC(N)=O)NC(=O)[C@@H](CC(C)C)NC(=O)[C@H](C)N(C)C(=O)[C@H](Cc3ccc(OCC(=O)O)cc3)NC(=O)[C@H](Cc3ccc(-c4ccccc4)cc3)NC(=O)[C@H](Cc3ccc(OCC(=O)O)cc3)NC2=O)c1` [Example 1367] ({CH2CO}-TY(Carboxymethyl)D[Phe(3-Me)]Y(Carboxymethyl)[Bip]Y(Carboxymethyl)[NMeA][dL]N[Cha]VSC[Orn][AEEA][Aun]-OH; thioether N-14), the IC50 worked out at 0.0556 µM.

The test is the same for the next values; noted with them: PE-labeled PD-L1-Ig 20 nM final, Jurkat-hPD-1 cells; read-out: Jurkat HPD1 PDL1 IC50.
Take `CCC(C)[C@@H]1NC(=O)[C@H](Cc2ccc(-c3ccccc3)cc2)NC(=O)[C@H](C(C)C)NC(=O)[C@H](Cc2c[nH]c3ccccc23)NC(=O)[C@H](CC(=O)O)NC(=O)[C@H](Cc2ccc(C(=O)O)cc2)NC(=O)[C@H](Cc2cnc[nH]2)NC(=O)CSC[C@@H](C(=O)N[C@@H](CCN)C(=O)NCCOCCOCC(=O)NCCCCCCCCCCC(=O)O)NC(=O)[C@H](CCC(=O)O)NC(=O)[C@H](C(C)(C)O)NC(=O)[C@H](CC2CCCCC2)NC(=O)[C@H](CCN)NC(=O)[C@@H](CC(C)C)NC(=O)[C@H](C)N(C)C1=O` (stereo partly drawn) [Example 2531] ({CH2CO}-H[Phe(4-COOH)]DWV[Bip][Ile(3ξ)][NMeA][dL][Dab][Cha][Val(3-OH)]EC[Dab][AEEA][Aun]-OH; thioether N-14): the IC50 was found to be 0.001 µM.
Take `CCC(C)[C@@H]1NC(=O)[C@H](Cc2ccc(-c3ccccc3)cc2)NC(=O)[C@H](C(C)C)NC(=O)[C@H](Cc2c[nH]c3ccccc23)NC(=O)[C@H](CC(=O)O)NC(=O)[C@H](Cc2ccc(OCC(=O)O)cc2)NC(=O)[C@H](Cc2cnc[nH]2)NC(=O)CSC[C@@H](C(=O)N[C@H](C)C(=O)NCCOCCOCC(=O)NCCCCCCCCCCC(=O)O)NC(=O)[C@H](C(C)O)NC(=O)[C@H](C(C)(C)O)NC(=O)[C@H](CC2CCCCC2)NC(=O)[C@H](CCN)NC(=O)[C@@H](CC(C)C)NC(=O)[C@H](C)N(C)C1=O` (stereo partly drawn) [Example 2514] ({CH2CO}-HY(Carboxymethyl)DWV[Bip][Ile(3ξ)][NMeA][dL][Dab][Cha][Val(3-OH)][Thr(3ξ)]C[dA][AEEA][Aun]-OH; thioether N-14): the IC50 was 0.0168 µM.
Same read-out and setting: then `CC(=O)NCCCC[C@@H]1NC(=O)[C@H](C(C)C)NC(=O)[C@H](CC2CCCCC2)NC(=O)[C@H](CCN)NC(=O)[C@@H](CC(C)C)NC(=O)[C@H](C)N(C)C(=O)[C@H](CCC(N)=O)NC(=O)[C@H](Cc2ccc(-c3ccccc3)cc2)NC(=O)[C@H](C(C)C)NC(=O)[C@H](Cc2c[nH]c3ccccc23)NC(=O)[C@H](CC(=O)O)NC(=O)[C@H](Cc2ccc(OCC(=O)O)cc2)NC(=O)[C@H](Cc2ccncc2)NC(=O)CSC[C@@H](C(=O)N[C@@H](CCN)C(=O)NCCOCCOCC(=O)NCCCCCCCCCCC(=O)O)NC1=O` [Example 2491] ({CH2CO}-[4Pal]Y(Carboxymethyl)DWV[Bip]Q[NMeA][dL][Dab][Cha]VK(Ac)C[Dab][AEEA][Aun]-OH; thioether N-14), with 0.0191 µM; and `Cc1cccc(C[C@@H]2NC(=O)[C@H](CC(=O)O)NC(=O)[C@H](Cc3ccc(OCC(=O)O)cc3)NC(=O)[C@H](C(C)O)NC(=O)CSC[C@@H](C(=O)N[C@@H](CCN)C(=O)NCCOCCOCC(=O)NCCCCCCCCCCCCCCC(=O)O)NC(=O)[C@H](CCC(=O)O)NC(=O)[C@H](C(C)C)NC(=O)[C@H](CC3CCCCC3)NC(=O)[C@H](CCN)NC(=O)[C@@H](CC(C)C)NC(=O)[C@H](C)N(C)C(=O)[C@H](Cc3ccc(OCC(=O)O)cc3)NC(=O)[C@H](Cc3ccc(-c4ccccc4)cc3)NC(=O)[C@H](Cc3ccc(C(=O)O)cc3)NC2=O)c1` (stereo partly drawn) [Example 2603] ({CH2CO}-[Thr(3ξ)]Y(Carboxymethyl)D[Phe(3-Me)][Phe(4-COOH)][Bip]Y(Carboxymethyl)[NMeA][dL][Dab][Cha]VEC[Dab][AEEA]-{NH(CH2)14COOH}; thioether N-14), with 0.405 µM.
